From patent publication US4604383A, “Pyrrolidin-2-ones and medicaments containing them” (Societe Anonyme Styled: SANOFI, priority 1983, dated 1986)
Where two headings read alike, the source gives them in different places.

How the values were obtained:
[1] = Effect on spontaneous motility (Boissier and Simon activity test, actimetric cages); assay type: in vivo, mouse (CD1 Charles Rivers female mice); settings: mouse; for Locomotor activity, score percent/controls: 100 mg/kg p.os., 45 min after administration, 10 min recording, * P <= 0.05, ** P <= 0.01; for Effect on spontaneous motility (in words): oral dose of 100 mg/kg
Procedure: The spontaneous motility of the animals was measured by means of the activity test developed by Boissier and Simon, Arch. Int. Pharmacocyn., 1965, 158, 212-221. The equipment is composed of actimetric cages, type Apelab (26×21.5×10 cm), traversed by two light rays which fall on a photoelectric cell. The batches were constituted by CD1 Charles Rivers female mice, of weight comprised between 20 and 24 g. The animals were placed individually in cages 45 minutes after oral administration of the products at the dose of 100 mg/kg. Each traversal by a light beam was counted by an individual counter. The scores corresponding to the movements of the animals were recorded for 10 minutes, and compared with the scores taken on batches of control animals, treated only with the vehicle (5% gum arabic).

[2] = Acute toxicity, determination of the lethal dose in the mouse; settings: in vivo, po, read-out: Percent toxicity (animals which die in 72 hours)
Procedure: The toxicity of the products according to the invention was studied: the products were administered orally, to batches of 5 CD Charles Rivers female mice, of weights comprised between 20 and 24 g. The toxicity was noted during the 72 hours which followed the administration of the products.
The results expressed as a percentage of animals which die in the 72 hours following the oral administration of the products, are noted in the preceding table.

[3] = Antagonism of the convulsions induced by electric shock; assay type: in vivo, mouse (CD1 Charles Rivers mice); settings: mouse, oral, 60 min before electroshock; probit method, confidence limits in parentheses, p <= 0.05; read-out: Median effective dose (ED50) of electric shock antagonism
Procedure: (§1) The anticonvulsant effect of the products in the mouse was evaluated on a model of convulsions caused by electric shock, and on 2 models of convulsions induced by chemical agents: bicuculline and 3-mercaptopropionic acid.
The test was slightly modified from that of Swinyard et al., J. Pharm. Exp. Ther., 1952, 106, 319-330 and Asami et al. Arzneim. Forsch., 1974, 24 (1), 1563-1568. The equipment was composed of a Racia shock generator provided with two occular electrodes delivering a current of 60 volts for 0.3 seconds. The batches were constituted by 10 CD1 Charles Rivers mice of weight comprised between 20 and 24 g. The products were administered orally, 60 minutes before the electroshock.

[4] = Antagonism of convulsions and of mortality caused by bicucullin; assay type: in vivo, mouse (CD Charles Rivers mice)
Procedure: as §1
The batches were constituted by 10 CD Charles Rivers mice of weights comprised between 20 and 22 g. The products were administered orally, 60 minutes before the bicucullin (0.8 mg/kg, i.v.).

[5] = Antagonism to the convulsions caused by 3-mercaptopropionic acid; assay type: in vivo, mouse (CD Charles Rivers mice); settings: mouse, oral, 60 min before 3-mercaptopropionic acid 60 mg/kg s.c.; probit method, confidence limits in parentheses, p <= 0.05; read-out: Median effective dose (ED50) of antagonism to convulsions caused by 3-mercaptopropionic acid
Procedure: as §1
The batches were constituted by 10 CD Charles Rivers mice of weights comprised between 20 and 22 g. The products were administered orally 60 minutes before the 3-mercaptopropionic acid (60 mg/kg s.c.).

[6] = Potentiation of narcosis with pentobarbital (loss of righting reflex); assay type: in vivo, mouse (CD1 Charles Rivers mice); settings: mouse, products at 100 mg/kg p.os., 60 min before pentobarbital 20 mg/kg i.p.
Procedure: For the purpose of evaluating the hypnogenic power of the products, their capacity to potentiate the effects of a subnarcotic dose of pentabarbital in the mouse was studied. The batches were constituted by 10 CD1 Charles Rivers mice, of weight comprised between 20 and 24 g.
The pentobarbital (20 mg/kg, i.p.) was administered 60 minutes after administration of the products. The drowsiness criterion taken was the loss of the righting reflex.

[7] = Mus musculus, po, read-out: Median effective dose (ED50) of the antagonism to the effects of bicucullin: Mortality
[8] = mouse, oral, 60 min before bicucullin 0.8 mg/kg i.v., probit method, confidence limits in parentheses, p < 0.05, read-out: Median effective dose (ED50) of the antagonism to the effects of bicucullin: Tonic convulsions

| Structure (SMILES) | Locomotor activity, score percent/controls [1] [%] | Effect on spontaneous motility (in words) [1] | mortality at 72 h ([2]; 250 mg/kg) [%] | mortality at 72 h ([2]; 500 mg/kg) [%] | mortality at 72 h ([2]; 1000 mg/kg) [%] | mortality at 72 h ([2]; 250 mg/kg p.os.) [%] | mortality at 72 h ([2]; 500 mg/kg p.os.) [%] | ED50 [3] [mg/kg] | ED50 [4, 7] [mg/kg] | ED50 [4, 8] [mg/kg] | mortality at 72 h ([2]; 1000 mg/kg p.os.) [%] | ED50 [5] [mg/kg] | Potentiation of pentobarbital, percent of animals in narcosis [6] [%] |
| --- | --- | --- | --- | --- | --- | --- | --- | --- | --- | --- | --- | --- | --- |
| C[C@@H]1C[C@@H](Cc2cccs2)NC1=O (relative stereo) [SR 42008, 3-methyl-5-(2-thienyl-methyl)-2-pyrrolidinone] | -52 | sedative activity characterized by a considerable reduction in the motility | 0 | 0 | 0 |  |  |  |  |  |  |  |  |
| COc1ccc(CC2CC(c3ccccc3)C(=O)N2)cc1OC (centres unmarked) [SR 41773] |  |  |  |  |  | 0 | 0 |  |  |  |  |  |  |
| C[C@H]1C[C@@H](Cc2cccs2)NC1=O (relative stereo) [SR 42009, 3-methyl-5-(2-thienyl-methyl)-2-pyrrolidinone] | -23 | sedative activity characterized by a considerable reduction in the motility | 0 | 0 | 40 |  |  |  |  |  |  |  |  |
| CC1(C)CC(Cc2ccc(Cl)cc2Cl)NC1=O (centres unmarked) [SR 42508] |  |  |  |  |  | 0 | 0 | 50 | 73 | ~100 | 0 |  |  |
| CC1CC(Cc2ccc(Cl)cc2)NC1=O (centres unmarked) [SR 42354] |  |  |  |  |  | 0 | 0 | 34 | 66 | 63 |  | 40 |  |
| CCCCC1([Si](C)(C)C)CC(Cc2ccccc2)NC1=O (centres unmarked) [SR 42133] |  |  |  |  |  | 0 | 0 |  |  |  | 0 |  |  |
| Cc1ccc(CC2CC(C)(C)C(=O)N2)cc1 (centres unmarked) [SR 42003] |  |  |  |  |  | 0 | 0 |  |  |  | 0 |  |  |
| CC1(C)CC(Cc2ccccc2Cl)NC1=O (centres unmarked) [SR 41880] |  |  |  |  |  | 0 | 0 |  |  |  | 20 |  | 40 |
| COc1ccc(CC2CC(C)(C)C(=O)N2)cc1OC (centres unmarked) [SR 41677] |  |  |  |  |  | 0 | 0 |  |  |  |  |  | 30 |
| CC1CC(Cc2c(F)cccc2Cl)NC1=O (centres unmarked) [SR 42004] |  |  |  |  |  | 0 | 0 | 34 | > 100 | ~100 | 0 | 27 | 30 |
| CC1CC(Cc2ccccc2)NC1=O (centres unmarked) [SR 42010] |  |  |  |  |  | 0 |  | 105 |  |  |  | 44 |  |
| CC1CC(Cc2cccc(C(F)(F)F)c2)NC1=O (centres unmarked) [SR 42401] |  |  |  |  |  | 0 | 0 | 39 | 72 | 62 |  |  |  |
| C[Si](C)(C)C1CC(Cc2ccccc2)NC1=O (centres unmarked) [SR 42134] |  |  |  |  |  | 0 | 0 |  |  |  | 0 |  |  |
| CCC1(C)CC(Cc2ccccc2F)NC1=O (centres unmarked) [SR 42001, 3-ethyl-5-[(2-fluoro-phenyl)-methyl]-3-methyl 2-pyrrolidinone] |  |  |  |  |  | 0 | 0 |  | 62 | 83 | 20 |  | 20 |
| CC1(C)CC(Cc2cccc(C(F)(F)F)c2)NC1=O (centres unmarked) [SR 42725] |  |  |  |  |  | 0 | 0 | 34 | 66 | ~100 | 0 |  |  |
| CC1CC(Cc2ccc(F)cc2)NC1=O (centres unmarked) [SR 41882, 5[(4-fluoro-phenyl)-methyl]-3-methyl-2-pyrrolidinone] |  |  |  |  |  | 0 | 0 |  |  |  | 100 | 41 | 20 |
| CC1CC(Cc2cccc(Cl)c2)NC1=O (centres unmarked) [SR 42717] |  |  |  |  |  | 0 | 0 | 41 | 59 | ~100 | 100 |  |  |
| CC(C)C1CC(Cc2ccc(Cl)cc2)NC1=O (centres unmarked) [SR 42726] |  |  |  |  |  | 0 | 0 | 72 |  |  | 20 |  |  |
